Assays:
[1] = molecular target: T1, ATPase family AAA domain-containing protein 2B (Homo sapiens, UniProt Q9ULI0); assay: Binding affinity to partial length human ATAD2B (Q955 to R1082) expressed in bacterial expression system by Bromoscan method
T1 sequence (Q9ULI0 whole entry): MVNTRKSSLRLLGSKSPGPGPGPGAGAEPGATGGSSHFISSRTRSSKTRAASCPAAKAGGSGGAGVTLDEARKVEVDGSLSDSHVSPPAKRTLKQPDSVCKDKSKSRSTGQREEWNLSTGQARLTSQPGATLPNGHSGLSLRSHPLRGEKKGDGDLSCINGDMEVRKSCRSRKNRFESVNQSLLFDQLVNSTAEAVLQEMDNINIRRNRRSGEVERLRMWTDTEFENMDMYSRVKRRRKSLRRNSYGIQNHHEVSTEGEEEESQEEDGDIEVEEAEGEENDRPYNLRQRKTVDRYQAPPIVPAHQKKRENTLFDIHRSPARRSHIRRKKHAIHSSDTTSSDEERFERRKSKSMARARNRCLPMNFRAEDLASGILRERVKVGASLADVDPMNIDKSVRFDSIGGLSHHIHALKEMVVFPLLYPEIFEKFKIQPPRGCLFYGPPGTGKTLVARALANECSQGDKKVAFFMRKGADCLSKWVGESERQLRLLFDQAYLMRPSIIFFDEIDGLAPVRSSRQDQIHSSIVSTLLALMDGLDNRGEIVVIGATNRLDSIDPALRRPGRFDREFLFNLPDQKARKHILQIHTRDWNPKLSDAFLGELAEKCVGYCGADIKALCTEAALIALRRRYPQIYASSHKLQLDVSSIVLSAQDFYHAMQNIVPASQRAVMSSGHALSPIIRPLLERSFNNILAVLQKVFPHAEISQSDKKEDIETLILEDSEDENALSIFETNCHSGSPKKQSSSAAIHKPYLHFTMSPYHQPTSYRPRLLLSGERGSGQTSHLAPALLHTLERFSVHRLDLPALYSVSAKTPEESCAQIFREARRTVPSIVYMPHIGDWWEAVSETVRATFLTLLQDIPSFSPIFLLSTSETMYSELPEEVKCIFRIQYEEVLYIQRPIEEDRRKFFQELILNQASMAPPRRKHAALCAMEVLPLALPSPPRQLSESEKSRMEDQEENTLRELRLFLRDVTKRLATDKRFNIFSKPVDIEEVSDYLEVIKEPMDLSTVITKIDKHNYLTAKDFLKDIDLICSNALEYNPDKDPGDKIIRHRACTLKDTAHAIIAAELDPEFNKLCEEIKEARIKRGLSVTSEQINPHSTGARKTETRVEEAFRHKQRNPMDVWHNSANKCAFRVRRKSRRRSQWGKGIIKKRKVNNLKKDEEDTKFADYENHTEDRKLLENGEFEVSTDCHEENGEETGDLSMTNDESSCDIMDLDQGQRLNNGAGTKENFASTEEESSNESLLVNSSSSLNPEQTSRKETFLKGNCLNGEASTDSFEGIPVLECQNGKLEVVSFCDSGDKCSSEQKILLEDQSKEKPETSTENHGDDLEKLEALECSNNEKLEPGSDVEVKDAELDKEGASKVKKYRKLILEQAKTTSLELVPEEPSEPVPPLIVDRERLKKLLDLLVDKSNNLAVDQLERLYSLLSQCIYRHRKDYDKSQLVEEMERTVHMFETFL

[2] = molecular target: T2, Bromodomain-containing protein 4 (Homo sapiens, UniProt O60885); assay: Binding affinity to recombinant BRD4 bromodomain1 (unknown origin) by isothermal titration calorimetry
[3] = molecular target: T2, Bromodomain-containing protein 4; assay: Binding affinity to human BRD4 bromodomain1 by isothermal titration calorimetry
CREB-binding protein [4] = molecular target: T3, CREB-binding protein (Homo sapiens, UniProt Q92793); assay: Binding affinity to C-terminally biotinylated N-terminal His10-tagged human CBP bromodomain (R1081 to G1198 residues) expressed in Escherichia coli BL21(DE3) by isothermal titration calorimetry
[5] = molecular target: T4, Histone acetyltransferase p300 (Homo sapiens, UniProt Q09472); assay: Binding affinity to EP300 (unknown origin) by isothermal titration calorimetry
[6] = molecular target: T2, Bromodomain-containing protein 4; assay: Displacement of Halo-tagged histone H3.3 from Nluc-BRD4 (unknown origin) expressed in HEK293 cells using furimazine as substrate pretreated for 18 hrs followed by substrate addition measured within 5 mins by NanoBRET assay; format: cell-based
CREB-binding protein [7] = molecular target: T3, CREB-binding protein; assay: Inhibition of CBP bromodomain (unknown origin) using H3K56Ac peptide as substrate by Alphascreen assay
CREB-binding protein [8] = molecular target: T3, CREB-binding protein; assay: Binding affinity to CBP bromodomain (unknown origin) by tryptophan fluorescence assay
[9] = molecular target: T5, Histone acetyltransferase KAT2B (Homo sapiens, UniProt Q92831)
Description: Displacement of biotinylated small molecule ligand from His/FLAG-tagged PCAF bromodomain (719 to 832 residues) (unknown origin) after 15 mins by AlphaLisa method

THP-1 = assay: Inhibition of LPS-stimulated IL-6 secretion in human THP1 cells by ELISA; format: functional, cell-based
[10] = tested on: Human immunodeficiency virus 1; assay: Antiviral activity against HIV1 3B infected in human C8166 cells assessed as reduction in virus-induced cytopathic effect by measuring syncytium formation after 3 days by inverted microscopic analysis; format: functional, organism-based; settings: Human immunodeficiency virus 1, 3B, C8166, 72 h
[11] = molecular target: T5, Histone acetyltransferase KAT2B; remark: listed apart in the source
[12] = molecular target: Cellular tumor antigen p53 (Homo sapiens, UniProt P04637); assay: Inhibition of p53-induced (unknown origin) expressed in human RKO cells assessed as reduction in p53-induced p21 activation measured after 24 hrs by luciferase reporter gene assay; format: cell-based
CREB-binding protein [13] = molecular target: T3, CREB-binding protein; assay: Binding affinity to recombinant human His-tagged CBP bromodomain expressed in bacterial expression system by isothermal titration calorimetry
[14] = molecular target: T4, Histone acetyltransferase p300; assay: Binding affinity to recombinant human His-tagged EP300 expressed in bacterial expression system by isothermal titration calorimetry

T3 sequence (Q92793 whole entry, the tested form may be a part): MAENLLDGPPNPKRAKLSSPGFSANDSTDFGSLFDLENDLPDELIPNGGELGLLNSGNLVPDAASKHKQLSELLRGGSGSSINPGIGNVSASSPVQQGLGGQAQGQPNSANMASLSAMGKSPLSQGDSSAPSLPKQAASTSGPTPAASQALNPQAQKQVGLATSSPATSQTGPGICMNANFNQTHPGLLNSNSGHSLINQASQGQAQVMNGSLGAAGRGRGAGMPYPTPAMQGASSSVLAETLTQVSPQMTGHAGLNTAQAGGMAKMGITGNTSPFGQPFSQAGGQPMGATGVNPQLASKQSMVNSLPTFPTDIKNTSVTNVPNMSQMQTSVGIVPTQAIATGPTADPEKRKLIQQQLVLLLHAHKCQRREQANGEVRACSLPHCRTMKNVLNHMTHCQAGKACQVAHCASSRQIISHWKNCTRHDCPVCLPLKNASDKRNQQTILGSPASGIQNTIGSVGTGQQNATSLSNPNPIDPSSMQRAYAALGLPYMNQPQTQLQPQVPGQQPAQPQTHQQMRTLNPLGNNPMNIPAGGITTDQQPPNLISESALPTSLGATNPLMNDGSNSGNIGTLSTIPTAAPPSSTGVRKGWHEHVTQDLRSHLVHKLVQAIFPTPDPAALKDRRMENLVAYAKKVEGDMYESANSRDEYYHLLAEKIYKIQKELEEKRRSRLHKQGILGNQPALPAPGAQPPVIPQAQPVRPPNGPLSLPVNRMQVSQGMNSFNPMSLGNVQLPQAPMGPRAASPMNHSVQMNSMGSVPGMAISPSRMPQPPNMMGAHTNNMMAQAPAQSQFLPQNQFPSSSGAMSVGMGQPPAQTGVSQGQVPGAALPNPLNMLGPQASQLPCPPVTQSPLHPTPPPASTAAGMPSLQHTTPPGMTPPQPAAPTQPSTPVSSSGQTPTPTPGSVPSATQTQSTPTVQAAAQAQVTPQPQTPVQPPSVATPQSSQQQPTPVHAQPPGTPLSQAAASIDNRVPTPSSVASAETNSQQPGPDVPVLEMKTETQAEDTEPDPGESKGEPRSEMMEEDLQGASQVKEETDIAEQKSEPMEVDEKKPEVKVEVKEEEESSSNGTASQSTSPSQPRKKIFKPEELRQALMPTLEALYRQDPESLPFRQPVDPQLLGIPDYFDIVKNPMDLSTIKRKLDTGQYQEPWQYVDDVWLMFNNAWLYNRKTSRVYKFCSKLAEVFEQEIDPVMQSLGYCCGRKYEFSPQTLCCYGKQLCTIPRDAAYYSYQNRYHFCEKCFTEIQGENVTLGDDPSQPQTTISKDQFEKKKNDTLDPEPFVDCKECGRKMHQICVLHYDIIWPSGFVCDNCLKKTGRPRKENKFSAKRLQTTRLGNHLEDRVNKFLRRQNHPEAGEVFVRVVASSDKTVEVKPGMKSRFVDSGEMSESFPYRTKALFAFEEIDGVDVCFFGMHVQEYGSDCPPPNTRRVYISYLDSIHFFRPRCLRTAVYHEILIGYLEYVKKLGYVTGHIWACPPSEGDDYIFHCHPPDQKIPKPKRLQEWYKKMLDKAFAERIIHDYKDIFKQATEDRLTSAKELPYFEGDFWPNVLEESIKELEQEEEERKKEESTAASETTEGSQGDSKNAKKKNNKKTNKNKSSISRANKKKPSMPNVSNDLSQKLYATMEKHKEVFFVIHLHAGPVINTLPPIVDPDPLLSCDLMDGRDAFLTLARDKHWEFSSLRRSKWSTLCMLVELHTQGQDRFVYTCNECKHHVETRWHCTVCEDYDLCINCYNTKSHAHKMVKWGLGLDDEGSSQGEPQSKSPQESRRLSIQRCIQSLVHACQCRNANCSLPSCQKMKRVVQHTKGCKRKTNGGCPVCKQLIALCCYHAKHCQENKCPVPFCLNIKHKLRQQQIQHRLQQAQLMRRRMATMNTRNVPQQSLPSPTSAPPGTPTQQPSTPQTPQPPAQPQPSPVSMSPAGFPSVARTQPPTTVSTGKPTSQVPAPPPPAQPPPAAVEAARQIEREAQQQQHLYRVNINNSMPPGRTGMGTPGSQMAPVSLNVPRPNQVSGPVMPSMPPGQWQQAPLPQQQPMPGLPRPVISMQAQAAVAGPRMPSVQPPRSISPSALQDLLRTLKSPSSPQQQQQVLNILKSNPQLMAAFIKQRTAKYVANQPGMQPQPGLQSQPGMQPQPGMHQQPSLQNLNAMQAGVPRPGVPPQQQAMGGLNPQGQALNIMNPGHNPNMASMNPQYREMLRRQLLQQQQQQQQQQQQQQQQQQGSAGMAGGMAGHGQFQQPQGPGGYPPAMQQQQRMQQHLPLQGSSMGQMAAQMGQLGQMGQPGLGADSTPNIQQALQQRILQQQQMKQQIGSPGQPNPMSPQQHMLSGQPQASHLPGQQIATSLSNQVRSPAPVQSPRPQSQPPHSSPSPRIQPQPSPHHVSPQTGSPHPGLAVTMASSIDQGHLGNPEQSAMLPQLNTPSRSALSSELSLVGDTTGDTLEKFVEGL
T5 sequence (Q92831 whole entry): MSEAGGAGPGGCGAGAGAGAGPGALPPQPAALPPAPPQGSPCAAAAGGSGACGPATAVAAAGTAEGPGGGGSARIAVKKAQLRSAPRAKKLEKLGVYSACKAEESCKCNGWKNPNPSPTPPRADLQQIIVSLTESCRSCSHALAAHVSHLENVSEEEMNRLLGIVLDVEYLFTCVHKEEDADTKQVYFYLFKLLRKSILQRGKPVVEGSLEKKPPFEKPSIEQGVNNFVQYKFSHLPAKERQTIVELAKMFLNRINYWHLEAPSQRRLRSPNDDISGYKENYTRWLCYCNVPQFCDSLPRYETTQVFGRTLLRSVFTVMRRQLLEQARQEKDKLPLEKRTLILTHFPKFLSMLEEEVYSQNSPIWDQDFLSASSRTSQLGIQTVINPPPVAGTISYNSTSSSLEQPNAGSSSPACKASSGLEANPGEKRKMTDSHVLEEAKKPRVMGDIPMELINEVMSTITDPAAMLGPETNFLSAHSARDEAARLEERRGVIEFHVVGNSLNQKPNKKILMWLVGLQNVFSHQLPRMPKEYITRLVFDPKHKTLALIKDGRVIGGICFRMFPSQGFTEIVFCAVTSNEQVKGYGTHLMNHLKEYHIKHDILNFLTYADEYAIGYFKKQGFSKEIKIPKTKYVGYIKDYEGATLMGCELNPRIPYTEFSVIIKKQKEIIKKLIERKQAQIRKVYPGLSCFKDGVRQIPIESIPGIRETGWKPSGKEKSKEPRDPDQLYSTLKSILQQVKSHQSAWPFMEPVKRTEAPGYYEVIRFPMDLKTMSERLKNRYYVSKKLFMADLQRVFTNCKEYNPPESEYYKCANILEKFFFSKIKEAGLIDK
Sequence of Cellular tumor antigen p53 (P04637 whole entry): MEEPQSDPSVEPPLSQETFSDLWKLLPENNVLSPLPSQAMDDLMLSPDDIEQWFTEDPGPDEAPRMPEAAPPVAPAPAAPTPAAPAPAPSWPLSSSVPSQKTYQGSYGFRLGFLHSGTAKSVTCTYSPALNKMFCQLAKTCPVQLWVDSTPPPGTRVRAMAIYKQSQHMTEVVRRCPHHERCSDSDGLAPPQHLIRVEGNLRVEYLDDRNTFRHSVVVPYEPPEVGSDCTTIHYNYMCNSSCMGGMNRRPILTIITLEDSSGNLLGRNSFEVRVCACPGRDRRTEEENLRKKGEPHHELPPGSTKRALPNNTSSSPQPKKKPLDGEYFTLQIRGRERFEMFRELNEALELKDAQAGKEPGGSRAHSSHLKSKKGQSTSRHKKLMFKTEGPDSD

CO[C@H]1CNC[C@@H](OCC2CCC(F)(F)CC2)[C@@H]1Nc1ncc(-c2cncc(C)c2)c2cc(C)c(=O)[nH]c12
Kd [1]: 0.001 µM

CCCOc1ccc(CCc2nc3cc(-c4c(C)noc4C)ccc3n2CCN2CCOCC2)cc1
Kd [2]: 20 µM

CCC(=O)N1CCOc2c(cc(-c3ccc(OC)c(OC)c3)cc2OC[C@H]2CCCN(C)C2)C1
Kd [3]: 5.59 µM
Kd (CREB-binding protein [4]): 0.151 to 0.208 µM
Kd [5]: 0.167 to 0.343 µM
IC50 [6]: 0.6 µM

CC1Nc2ccccc2NC1=O (stereo not given)
IC50 (CREB-binding protein [7]): 1900 µM

CC(=O)NCCCC[C@@H]1NC(=O)[C@H](Cc2c[nH]c3ccccc23)NC(=O)[C@@H](NC(C)=O)CSSCC(C(=O)N[C@@H](Cc2ccccc2)C(=O)N[C@@H](CCCCN)C(N)=O)NC(=O)[C@H](CC(C)C)NC(=O)[C@H](CCCCN)NC1=O (single isomer, unassigned)
Kd (CREB-binding protein [8]): 8 µM

C[C@H](Nc1nn(C)c(=O)n(C)c1=O)[C@H](c1ccc(S(=O)(=O)c2ccccc2)cc1)N(C)C
IC50 [9]: 0.07 µM

Cc1cc(=O)n(C)c2cc(N3C(=O)CC[C@H](NS(=O)(=O)CC(C)C)[C@H]3c3ccc(Cl)cc3)ccc12
IC50 (THP-1): < 10 µM

NCCCNCc1ccc(NCCCN)[n+]([O-])c1
EC50 [10]: 11.5 µM
IC50 [11]: 0.93 µM

COc1ccc(CCc2nc3cc(-c4c(C)noc4C)ccc3n2C[C@H](C)N2CCOCC2)cc1Cl
IC50 [12]: 1.54 µM

Cc1noc(C)c1-c1ccc2c(c1)nc(CCc1ccccc1)n2CCN1CCOCC1
Kd (CREB-binding protein [13]): 0.32 µM
Kd [14]: 0.35 µM

— ChEMBL document CHEMBL4190171, “Chemical probes and inhibitors of bromodomains outside the BET family” (Medchemcomm, 2016)
